≈ marks a conversion by molar mass, not a printed value. Where a name gives a salt, the structure may show the parent alone. Read-outs that look alike come from different tables or passages of the source.
Key:
Type in all cases: cell-based
Candida albicans [1] = experiment: In vitro antifungal activity, IC80 (Method B)
Method: (§1) The in vitro antifungal activities of the representative compounds of the present invention shown in Table 1 and Table 2 were measured by determining the minimal inhibitory concentrations (MIC: Method A) or 80% growth inhibition concentration (IC80 : Method B) respectively. MIC is defined as the concentration of an antifungal at which growth of fungi is not observed and IC80 is the concentration where cell turbidity measured at OD630 is reduced by 80%.
(§2) Antifungal activities were determined by either method A or B (see below) using microtest plates according NCCLS with minor modifications (Galgiani et at., Antimicrob. Agents Chemother. 33, 731 (1989)).
(§3) (Method B) The medium for yeast was buffered to pH 7.0 with 0.25% K2 HPO4 in Yeast Nitrogen Base (Difco Lab.). For the filamentous fungi, 0.2% of low melting point agar was supplemented to the above medium. Inoculum size was 1×10^4 cells/ml, and incubation was carried out for 1-2 days at 27° C. Fluconazole (Pfizer) was used as reference.

A. fumigatus = experiment: In vitro antifungal activity, IC80 (Method B); conditions: Aspergillus fumigatus, read-out: Antifungal activity IC80
Method: as §1, §2, §3

C. neoformans = experiment: In vitro antifungal activity, IC80 (Method B); conditions: Cryptococcus neoformans
Method: as §1, §2, §3

Candida albicans [2] = experiment: In vitro antifungal activity, MIC (Method A); conditions: Candida albicans, 72 h, 3 days, 27° C.
Method: (§4) The in vitro antifungal activities of representative compounds of the present invention were measured by determining the minimal inhibitory concentration (MIC), which is the concentration of an antifungal at which no fungal growth can be observed.
(§5) The MICs were determined by the microbroth dilution procedure according to NCCLS with the following minor modifications (Galgiani et al., Antimicrob. Agents Chemother., 33, 731 (1989). The medium was solidified with 0.2% low melting point agarose and buffered to pH 7.0 with 0.25%: K2 HPO4 in Yeast Nitrogen Base (Difco Lab.). Inoculum size was 1×10^5 cells/ml, and incubation was carried out for 3 days at 27° C. The MICs ([…]) are shown in Table 1. The reference compound is compound (IA) in U.S. Pat. No. 4,952,604. The compounds used are identified by reference to the Examples in which they were prepared.
as §1, §2
(§6) (Method A) The medium was solidified with 0.2% low melting point agarose and buffered to pH 7.0 with 0.25% K2 HPO4 in Yeast Nitrogen Base (Difco Lab.). Inoculum size was 1×10^5 cells/ml, and incubation was carried out for 3 days at 27° C. The reference compound is compound (IA) in U.S. Pat. No. 4,952,604.

Aspergillus fumigatus = experiment: In vitro antifungal activity, MIC (Method A); conditions: Aspergillus fumigatus, 72 h, 3 days, 27° C.
Method: as §4, §5, §1, §2, §6

Cryptococcus neoformans = experiment: In vitro antifungal activity, MIC (Method A); conditions: Cryptococcus neoformans, 72 h, 3 days, 27° C.
Method: as §4, §5, §1, §2, §6

[3] = pH 7, Candida albicans CY1002, 1×10^4 cells/ml, 1-2 days, 27° C., read-out: Antifungal activity IC80
[4] = pH 7, Candida albicans CY1005, 1×10^4 cells/ml, 1-2 days, 27° C., read-out: Antifungal activity IC80
[5] = pH 7, Candida albicans CY3003, 1×10^4 cells/ml, 1-2 days, 27° C., read-out: Antifungal activity IC80
[6] = A. fumigatus CF1003, 1×10^4 cells/ml, 1-2 days, 27° C., 0.2% agar
[7] = A. fumigatus CF1004, 1×10^4 cells/ml, 1-2 days, 27° C., 0.2% agar
[8] = pH 7, C. neoformans CY1057, 1×10^4 cells/ml, 1-2 days, 27° C., read-out: Antifungal activity IC80
[9] = pH 7, C. neoformans CY1059, 1×10^4 cells/ml, 1-2 days, 27° C., read-out: Antifungal activity IC80
[10] = pH 7, Candida albicans CY1002, 1×10^5 cells/ml
[11] = pH 7, Candida albicans CY1005, 1×10^5 cells/ml
[12] = pH 7, Candida albicans CY3003, 1×10^5 cells/ml
[13] = pH 7, Aspergillus fumigatus CF1003, 1×10^5 cells/ml
[14] = pH 7, Aspergillus fumigatus CF1004, 1×10^5 cells/ml
[15] = pH 7, Aspergillus fumigatus CF1023, 1×10^5 cells/ml
[16] = pH 7, Cryptococcus neoformans CY1057, 1×10^5 cells/ml
[17] = pH 7, Cryptococcus neoformans CY1059, 1×10^5 cells/ml
[18] = pH 7, Cryptococcus neoformans CY1061, 1×10^5 cells/ml

Row | MIC (Candida albicans [2]; [10]) [µg/mL] | MIC (Candida albicans [2]; [11]) [µg/mL] | MIC (Candida albicans [2]; [12]) [µg/mL] | MIC (Aspergillus fumigatus; [13]) [µg/mL] | MIC (Aspergillus fumigatus; [14]) [µg/mL] | MIC (Aspergillus fumigatus; [15]) [µg/mL] | MIC (Cryptococcus neoformans; [16]) [µg/mL] | MIC (Cryptococcus neoformans; [17]) [µg/mL] | MIC (Cryptococcus neoformans; [18]) [µg/mL] | SMILES | IC80 (Candida albicans [1]; [3]) [µg/mL] | IC80 (Candida albicans [1]; [4]) [µg/mL] | IC80 (Candida albicans [1]; [5]) [µg/mL] | IC80 (A. fumigatus; [6]) [µg/mL] | IC80 (A. fumigatus; [7]) [µg/mL] | IC80 (C. neoformans; [8]) [µg/mL] | IC80 (C. neoformans; [9]) [µg/mL] | further results
1 |  |  |  |  |  |  |  |  |  | CO[C@@H]1[C@@H](Cn2cncn2)[C@H](CCc2ccc(Cl)cc2)CCC1(C)C [Example 72, 1-[[(1R,2R,6R)-6-[2-(4-chlorophenyl)ethyl]-2-methoxy-3,3-dimethylcyclohexyl]methyl]-1H-1,2,4-triazole] | 0.095 (≈ 0.262 µM) | 0.094 (≈ 0.26 µM) | 0.06 (≈ 0.166 µM) | 14 (≈ 38.7 µM) | 12 (≈ 33.2 µM) | 1.3 (≈ 3.59 µM) | 4.8 (≈ 13.3 µM) | 
2 |  |  |  |  |  |  |  |  |  | CCc1ccc(CC[C@@H]2CCC(C)(C)[C@H](OC)[C@H]2Cn2cncn2)cc1 [Example 81, 1-[[(1R,2R,6R)-6-(4-ethylphenyl)ethyl-2-methoxy-3,3-dimethyl-cyclohexyl]methyl]-1H-1,2,4-triazole] | 0.0075 (≈ 0.0211 µM) | 0.025 (≈ 0.0703 µM) | 0.0042 (≈ 0.0118 µM) | > 200 | > 200 | 1.5 (≈ 4.22 µM) | 1.5 (≈ 4.22 µM) | 
3 |  |  |  |  |  |  |  |  |  | COc1ccc(CC[C@@H]2CCC(C)(C)[C@H](OC)[C@H]2Cn2cncn2)cc1 [Example 79, 1-[[(1R,2R,6R)-2-methoxy-6-(p-methoxyphenethyl)-3,3-dimethylcyclohexyl]methyl]-1H,1,2,4-triazole] | 0.023 (≈ 0.0643 µM) | 0.024 (≈ 0.0671 µM) | 0.02 (≈ 0.0559 µM) | > 200 | > 200 | 0.86 (≈ 2.41 µM) | 4.7 (≈ 13.1 µM) | 
4 |  |  |  |  |  |  |  |  |  | CCCCCCCCO[C@@H]1CCC(C)(C)[C@H](OC)[C@H]1NC(=O)CN [Example 54, (1R,2S,3S)-2-[(aminoacetyl)amino-4,4-dimethyl-3-methoxy-1-octyloxycyclohexanetrifluoroacetic acid salt] | 18 | 12 | 18 | 150 | 140 | 46 | 47 | 
5 |  |  |  |  |  |  |  |  |  | CO[C@@H]1[C@@H](Cn2cncn2)[C@H](CCc2ccc(OC(F)(F)F)cc2)CCC1(C)C [Example 78, 1-[[(1R,2R,6R)-6-(p-trifluoromethoxyphenethyl)-2-methoxy-3,3-dimethylcyclohexyl]methyl]-1H-1,2,4-triazole] | 0.03 (≈ 0.0729 µM) | 0.093 (≈ 0.226 µM) | 0.071 (≈ 0.173 µM) | > 200 | > 200 | 8.4 (≈ 20.4 µM) | 21 (≈ 51 µM) | 
6 |  |  |  |  |  |  |  |  |  | CO[C@@H]1[C@@H](Cn2cncn2)[C@H](CCc2ccc(N(C)C)cc2)CCC1(C)C [Example 71] | 0.03 (≈ 0.081 µM) | 0.094 (≈ 0.254 µM) | 0.036 (≈ 0.0972 µM) | 32 (≈ 86.4 µM) | 37 (≈ 99.9 µM) | 1.2 (≈ 3.24 µM) | 1.9 (≈ 5.13 µM) | 
7 |  |  |  |  |  |  |  |  |  | CO[C@@H]1[C@@H](Cn2cncn2)[C@H](CCc2ccc(N3CCCC3)cc2)CCC1(C)C [Example 82, 1-[[(1R,2R,6R)-2-methoxy-3,3-dimethyl-6-[2-(p-pyrrolidinophenyl)ethyl]cyclohexyl]methyl]-1H,1,2,4-triazole] | 0.15 (≈ 0.378 µM) | 0.35 (≈ 0.883 µM) | 0.17 (≈ 0.429 µM) | > 200 | > 200 | > 200 | > 200 | 
8 |  |  |  |  |  |  |  |  |  | CO[C@@H]1[C@@H](Cn2cncn2)[C@H](CCc2ccc3ccccc3c2)CCC1(C)C [Example 75, 1-[[(1R,2R,6R)-2-methoxy-3,3-dimethyl-6-(2-b-naphthylethyl)cyclohexyl]methyl]-1H,1,1,4-triazole] | 0.18 (≈ 0.477 µM) | 0.2 (≈ 0.53 µM) | 0.34 (≈ 0.901 µM) | > 200 | > 200 | 0.19 (≈ 0.503 µM) | 1.3 (≈ 3.44 µM) | 
9 |  |  |  |  |  |  |  |  |  | CO[C@@H]1[C@@H](Cn2cncn2)[C@H](CCc2ccc(C(F)(F)F)cc2)CCC1(C)C [Example 77] | 0.16 (≈ 0.405 µM) | 0.18 (≈ 0.455 µM) | 0.093 (≈ 0.235 µM) | > 200 | > 200 | 0.39 (≈ 0.986 µM) | 3.2 (≈ 8.09 µM) | 
10 |  |  |  |  |  |  |  |  |  | OC(Cn1cncn1)(Cn1cncn1)c1ccc(F)cc1F [FCZ, Fluconazole, reference compound] |  |  |  |  |  |  |  | IC80 (Candida albicans [1]; pH 7, read-out: Antifungal activity IC80, Candida albicans CY1002, 1×10^4 cells/ml, 1-2 days, 27° C.): 1.1 µg/mL (≈ 3.59 µM); IC80 (Candida albicans [1]; pH 7, read-out: Antifungal activity IC80, Candida albicans CY1005, 1×10^4 cells/ml, 1-2 days, 27° C.): 1.2 µg/mL (≈ 3.92 µM); IC80 (Candida albicans [1]; pH 7, read-out: Antifungal activity IC80, Candida albicans CY3003, 1×10^4 cells/ml, 1-2 days, 27° C.): 1 µg/mL (≈ 3.27 µM); IC80 (A. fumigatus): 150 µg/mL (≈ 490 µM); IC80 (C. neoformans; pH 7, read-out: Antifungal activity IC80, C. neoformans CY1057, 1×10^4 cells/ml, 1-2 days, 27° C.): 5.2 µg/mL (≈ 17 µM); IC80 (C. neoformans; pH 7, read-out: Antifungal activity IC80, C. neoformans CY1059, 1×10^4 cells/ml, 1-2 days, 27° C.): 8.6 µg/mL (≈ 28.1 µM)
11 | 100 | 100 | 100 | 25 | 25 | 25 | 12.5 | 12.5 | 25 | CCCCC/C=C/C=C/[C@@H]1OC[C@H](C)[C@H](OC)[C@H]1OC(=O)CN.O=CO [Example 47, (2S,3R,4S,5S)-4-methoxy-5-methyl-2-[(1E,3E)-1,3-nonadienyl]tetrahydro-2H-pyran-3-yl glycinate formic acid salt] |  |  |  |  |  |  |  | 
12 | 200 | 200 | 100 | 6.25 | 6.25 | 6.25 | 6.25 | 6.25 | 25 | CCC/C=C/C=C/C=C/[C@@H]1OC[C@H](C)[C@H](OC)[C@H]1OC(=O)CN.O=CO [Example 11, (2S,3R,4S,5S)-4-methoxy-5-methyl-2-[(1E,3E,5E)-1,3,5-nonatrienyl]tetrahydro-2H-pyran-3-yl glycinate formic acid salt] |  |  |  |  |  |  |  | 
13 | 50 | 25 | 25 | 50 | 50 | 25 | 6.25 | 6.25 | 12.5 | CCCCCCCCC[C@@H]1OC[C@@H](C)[C@H](OC)[C@@H]1OC(=O)CN.O=C(O)C(F)(F)F [Example 43, (2S,3R,4S,5R)-4-methoxy-5-methyl-2-nonyltetrahydro-2H-pyran-3-yl glycinate trifluoroacetic acid salt] |  |  |  |  |  |  |  | 
14 | 100 | 100 | 100 | 12.5 | 12.5 | 6.25 | 12.5 | 12.5 | 25 | CCCCCCCC/C=C/[C@@H]1OC[C@H](C)[C@H](OC)[C@H]1OC(=O)CN.O=C(O)C(F)(F)F [Example 6, (2S,3R,4S,5S)-2-[(E)-1-decenyl]-4-methoxy-5-methyltetrahydro-2H-pyran-3-yl glycinate trifluoroacetic acid salt] |  |  |  |  |  |  |  | 
15 | 50 | 50 | 50 | 50 | 50 | 25 | 3.13 | 3.13 | 12.5 | CCCCCCC/C=C/[C@@H]1OC[C@H](C)C[C@H]1OC(=O)CN.O=C(O)C(F)(F)F [Example 28, (2S,3R,5R)-5-methyl-2-[(E)-1-nonenyl]tetrahydro-2H-pyran-3-yl glycinate trifluoroacetic acid salt] |  |  |  |  |  |  |  | 

Reference: patent US5719291A, “Cyclohexane derivatives” (Hoffmann-La Roche Inc., priority 1991, dated 1998)
